Here are results for one compound from patent US20210261524A1, “THERAPEUTIC COMPOUNDS AND COMPOSITIONS” (Exithera Pharmaceuticals, Inc., priority 2018, published 2021).

The test system of the data set is blood coagulation components. The settings on record: dog, in vivo. How it is done: The following parameters and endpoints were evaluated in this study: mortality, body weight, physical, clinical pathology parameters (hematology and coagulation), […], and bioanalytical parameters.
The vehicle and test article were administered via intravenous (IV) infusion once on Day 1 for 135 minutes (initiated 30 minutes prior to starting the Cardiopulmonary Bypass (CPB) and continuing for 105 minutes of CPB). Group 2 animals received a […] IV bolus dose immediately prior to the start of IV infusion. Group 3, 4, and 5 animals received a 10 mg/kg IV bolus dose prior to the start of the IV infusion; with the CPB machine primed with test article at 10 μg/mL.
Infusion of the Compound 1 was started 30 minutes prior to the animal being placed on the CPB pump. The CPB pump was primed with 0.9% saline.
Venous and arterial sheaths were flushed with the Compound 1 at a concentration of 10 μg/mL. An IV bolus dose of the test article was administered immediately prior to the start of the infusion. Infusion of Compound 1 was started 30 minutes prior to the animal being placed on the CPB pump. The CPB […] was primed with 10 μg/mL of the Compound 1 prior to initiation of the CPB pump.
An IV bolus dose of the Compound 1 was administered immediately prior to the start of the infusion. […]

Structures are written as SMILES.

Take `C[C@@H](NC(=O)N1C(=O)[C@H](Cc2ccnc(N)c2)[C@H]1C(=O)O)C1CCCCC1` [Compound 1, (2S,3R)-3-((2-aminopyridin-4-yl)methyl)-1-(((R)-1-cyclohexylethyl)carbamoyl)-4-oxoazetidine-2-carboxylic acid]: the morbidity or mortality result was “not associated with any increases in morbidity or mortality” and the “mortality (survival to study termination)” value is recorded as “All animals survived to study termination”.
